# Results: patent US20260117203A1, “MUTANT KETOREDUCTASE WITH INCREASED KETOREDUCTASE ACTIVITY AS WELL AS METHODS AND USES INVOLVING THE SAME” (Hoffmann-La Roche Inc., priority 2023, published 2026)
# Where a chain is given by its changes, count along the chain named.
# Experiments:
# Format in all cases: biochemical
# [1] = target: T1, Sporidiobolus salmonicolor ketoreductase variant E00158, Trp97_Lys238_Met241_Trp242_Ser245_Met316_Met342, SEQ ID NO: 6, His-tag (Sporobolomyces salmonicolor, UniProt Q9UUN9, A238K/F97W/L241M/L316M/M242W/Q245S/T342M); assay: Kinetic characterization (app. KM, app. kcat), Table 9c, variant E00158; details: E00158, relative to WT = 1
# T1 sequence (Q9UUN9 1-343 F97W/A238K/L241M/M242W/Q245S/L316M/T342M): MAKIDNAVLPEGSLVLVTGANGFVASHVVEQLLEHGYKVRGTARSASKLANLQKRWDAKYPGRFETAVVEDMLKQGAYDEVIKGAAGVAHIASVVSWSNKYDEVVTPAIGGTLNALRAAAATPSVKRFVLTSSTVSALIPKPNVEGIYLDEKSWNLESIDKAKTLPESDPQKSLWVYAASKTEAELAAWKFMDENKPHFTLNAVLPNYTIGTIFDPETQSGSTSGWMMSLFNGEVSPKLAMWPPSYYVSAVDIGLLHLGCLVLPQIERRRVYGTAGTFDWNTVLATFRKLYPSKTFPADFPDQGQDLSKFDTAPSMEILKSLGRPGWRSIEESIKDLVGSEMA
# [2] = target: T2, Sporidiobolus salmonicolor ketoreductase variant E00184, Trp97_Ala224_Lys238_Met241_Trp242_Ser245_Gly246_Met316_Met342, SEQ ID NO: 8, His-tag (Sporobolomyces salmonicolor, UniProt Q9UUN9, A238K/F97W/L241M/L316M/M242W/Q245S/S224A/T342M/Y246G); assay: Kinetic characterization (app. KM, app. kcat), Table 9c, variant E00184 (first line); details: relative to WT = 1
# T2 sequence (Q9UUN9 1-343 F97W/S224A/A238K/L241M/M242W/Q245S/Y246G/L316M/T342M): T1 sequence (Q9UUN9 1-343 F97W/A238K/L241M/M242W/Q245S/L316M/T342M) with S224A, Y246G
# [3] = target: T3, Sporidiobolus salmonicolor ketoreductase variant E00184 (second line so labelled); in Table 9b W97 V134 A224 K238 M241 W242 S245 G246 M316 M342, the mutations of (Sporobolomyces salmonicolor, UniProt Q9UUN9, A238K/F97W/L241M/L316M/M242W/Q245S/S224A/T134V/T342M/Y246G); assay: Kinetic characterization (app. KM, app. kcat), Table 9c, variant E00184 (second line); details: relative to WT = 1
# T3 construct: second row labelled E00184, evidently E00185
# T3 sequence (Q9UUN9 1-343 F97W/T134V/S224A/A238K/L241M/M242W/Q245S/Y246G/L316M/T342M): T1 sequence (Q9UUN9 1-343 F97W/A238K/L241M/M242W/Q245S/L316M/T342M) with T134V, S224A, Y246G
# [4] = target: T4, Sporidiobolus salmonicolor ketoreductase, wild type (WT), UniProt Q9UUN9, SEQ ID NO: 1 (Sporobolomyces salmonicolor, UniProt Q9UUN9); assay: Kinetic characterization (app. KM, app. kcat), Table 9c, wild type; details: reference = 1
# T4 sequence (Q9UUN9 1-343): T1 sequence (Q9UUN9 1-343 F97W/A238K/L241M/M242W/Q245S/L316M/T342M) with W97F, K238A, M241L, W242M, S245Q, M316L, M342T
# [5] = target: T5, Sporidiobolus salmonicolor ketoreductase variant E00174, Trp97_Lys238_Met241_Trp242_Ser245_Gly246_Met316_Met342, SEQ ID NO: 7, His-tag (Sporobolomyces salmonicolor, UniProt Q9UUN9, A238K/F97W/L241M/L316M/M242W/Q245S/T342M/Y246G); assay: Kinetic characterization (app. KM, app. kcat), Table 9c, variant E00174
# T5 sequence (Q9UUN9 1-343 F97W/A238K/L241M/M242W/Q245S/Y246G/L316M/T342M): T1 sequence (Q9UUN9 1-343 F97W/A238K/L241M/M242W/Q245S/L316M/T342M) with Y246G
# [6] = target: T6, Sporidiobolus salmonicolor ketoreductase variant E00144, Trp97_Met241_Trp242_Ser245_Met316_Met342, SEQ ID NO: 3, His-tag (Sporobolomyces salmonicolor, UniProt Q9UUN9, F97W/L241M/L316M/M242W/Q245S/T342M); assay: Kinetic characterization (app. KM, app. kcat), Table 9c, variant E00144; details: E00144, relative to WT = 1
# T6 sequence (Q9UUN9 1-343 F97W/L241M/M242W/Q245S/L316M/T342M): T1 sequence (Q9UUN9 1-343 F97W/A238K/L241M/M242W/Q245S/L316M/T342M) with K238A
# [7] = target: T7, Sporidiobolus salmonicolor ketoreductase variant E00128, Trp97_Met241_Trp242_Ser245, SEQ ID NO: 2, His-tag (Sporobolomyces salmonicolor, UniProt Q9UUN9, F97W/L241M/M242W/Q245S); assay: Kinetic characterization (app. KM, app. kcat), Table 9c, variant E00128; details: E00128, relative to WT = 1
# T7 sequence (Q9UUN9 1-343 F97W/L241M/M242W/Q245S): T1 sequence (Q9UUN9 1-343 F97W/A238K/L241M/M242W/Q245S/L316M/T342M) with K238A, M316L, M342T
smiles,measurement,setting,value
C[C@@H]1CC(=O)c2ncnc(N3CCN(C(=O)OC(C)(C)C)CC3)c21 [ketone of formula Ib],rel. kcat,[1],31
same,rel. kcat,[2],43
same,rel. kcat,[3],64
same,rel. kcat,[4],1
same,rel. kcat,"[5]; relative to WT = 1, substrate saturation not reached",94
same,app. kcat,[5]; substrate saturation not reached,45.8 ± 2.4 min−^1
same,rel. kcat,[6],13
same,rel. kcat,[7],12
